{"source": "paper PMC8861431", "about": "“Tissue Pharmacokinetic Properties and Bystander Potential of Hypoxia-Activated Prodrug CP-506 by Agent-Based Modelling” (Frontiers in Pharmacology, 2022)", "key": {"[1]": {"tested_on": "POR-overexpressing HCT-116 cells (POR-R) monolayer", "assay": "Cellular uptake studies / cellular PK model", "type": "in vitro ADME, human", "details": "for k in: rate constant for transfer from the extracellular to intracellular volume / k out: rate constant for transfer from the intracellular to extracellular volume: Table 1, ABM parameter, estimated from partitioning in monolayer cultures; for kin: rate of transfer from the extracellular to the intracellular compartment / kout: rate of transfer from the intracellular to the extracellular compartment: Table S3, cellular PK model, monolayer ABM fit; for kmet: rate of metabolism to the next metabolite: Table S3, anoxic, CP-506 to CP-506H, CP-506H to CP-506M, CP-506M to CP-506M-Cl2; for Activator k met0: rate constant for the maximum rate of metabolism in POR-R cells under anoxia / kmet: rate of metabolism to the next metabolite: POR-R cells", "description": "(§1) The intracellular/extracellular partitioning ratio for CP-506 and its major metabolites was determined in monolayer cultures of POR-overexpressing HCT-116 cells, as described previously ([Hong et al., 2018b]). Briefly, cells (5 x 10^5 per well) were seeded with 350 µl medium into 24-well plates and left to attach for 2 h in a humidified 37°C incubator. Stock solutions of CP-506 were diluted and added with 50 µl medium to the well volume to achieve a final concentration of 100 µM. Samples were harvested at various time points for up to 3 h thereafter. Aerobic experiments were performed under standard tissue culture conditions (21% O2), and the anoxic experiments in parallel in a H2/Pd-catalyst-scrubbed anaerobic chamber as described. The well volume was spiked with [^3H]-mannitol immediately before sample harvest and treated with two-volumes of ice-cold acetonitrile containing 2 µM of the deuterated (D8) internal standards for each CP-506, CP-506H and CP-506M. The cell monolayer was then treated with 100 µl of this crashing solution. Samples were stored at −80°C until LC-MS/MS analysis. The cellular exclusion of [^3H]-mannitol was used to account for the contribution of the extracellular medium toward determinations of the intracellular concentration, as described previously ([Foehrenbacher et al., 2013a]).\n(§2) An agent-based model (ABM) employing a one-dimensional approximation for monolayers was used to develop a cellular PK model, as described in further detail elsewhere ([Hong et al., 2018b]; [Mao et al., 2018]). The mathematical framework assumes that solute concentrations in the medium are dependent only on the depth (on the z coordinate) and not the lateral position (x,y) so that all cells are exposed to the same concentration of nutrients and drugs within the monolayer culture. Moreover, all cells have the same rate of metabolism and volume growth at any instance with variability allowed in cell volume, rate of cell division and cell death. Monolayer ABM simulations were performed on a desktop Windows PC (Intel core I7 processor) from a Qt (Qt Company, https://www.qt.io/) graphical user interface passing parameters to a DLL built with Fortran95. The monolayer ABM uses a finite difference method to solve reaction-diffusion equations for each compound (N) in the medium and cells. Parameters for the cellular uptake and metabolism were fitted to the concentration-time profiles of CP-506 and its metabolites in monolayer cultures of POR-R cells using a linear (first order) cell transport and metabolism model. Terms for the extracellular instability of CP-506 and its metabolites were set at their respective values in media stability studies, and media diffusion coefficients were estimated from the support membrane diffusion coefficients described below. Experimental data describing the kinetics of CP-506 uptake under aerobic conditions was fitted by adjusting the permeability coefficients kin and kout for each compound. These values were fixed for anoxic experiments to allow for parameter estimation of the rate of intracellular CP-506 metabolism (kmet0) as well as the intracellular/extracellular partitioning ratio (kin and kout) and metabolic instability (kmet0) for its cytotoxic metabolites."}, "[2]": {"assay": "Cellular uptake studies / cellular PK model", "type": "in vitro ADME, human", "details": "human, POR-overexpressing HCT-116 (POR-R) cell monolayer; Table S3, cellular PK model (extracellular instability); read-out: T1/2: time required to reduce the concentration to half its initial value (converted)", "description": "as §1, §2"}, "[3]": {"assay": "Diffusion across bare collagen-coated support membrane (without cells)", "type": "in vitro ADME", "details": "for D M: diffusion coefficient in medium: Table 1", "description": "The extravascular transport properties of CP-506 and its formed metabolites were investigated using a custom-designed diffusion apparatus, as described previously ([Hicks et al., 2006]). Briefly, MCL cultures were established by seeding 1 x 10^6 POR-R cells onto collagen-coated Millicell-CM inserts for 3 days. Established MCLs were placed at the interface of the two media-filled compartments of diffusion chambers. Diffusion chambers were placed in a 37°C water bath and gassed with a supraoxic (95% O2, 5% CO2) or anoxic (5% CO2, bal N2) mixture for at least 1 h prior to drug addition. Flux was initiated by the addition of internal standard ([^14C]-urea) and 20 µM CP-506 to the donor compartment. Samples (100 µl) were collected from both the donor and receiver compartments for up to 5 h thereafter. At each time point, a 25 µl aliquot was mixed with emulsifier-safe water-accepting scintillant and assayed for radioactivity using a Perkin Elmer Tricard 2910 TR liquid scintillation analyser. The remaining sample was treated with two volumes of ice-cold acetonitrile (containing 2 µM of the relevant deuterated internal standards) and stored at −80°C until LC-MS/MS analysis. Similar experiments were performed using collagen-coated inserts without MCLs to deduce the chemical stability and diffusion coefficient of CP-506 across the bare support membrane.\nDrug transport in MCLs was modelled as a one-dimensional diffusion with reaction across four consecutive compartments (stirred donor, POR-R MCL, collagen-coated teflon support membrane and stirred receiver) using a custom designed MatLab routine ([Foehrenbacher et al., 2013a]). Model parameters were derived by fitting Eq. 1 and Eq. 2 to the measured concentration-time profile of internal standard [^14C]-urea, CP-506, CP-506H and CP-506M in MCL flux studies. The flux of CP-506 and its metabolites across POR-R MCLs was described using Fick’s second law with a reaction term: ∂CeN/∂t=DN∂^2CeN/∂x^2−klossNCeN− φ( kinNCeN− koutNCiN) (1) ∂CiN/∂t= kmet0(N−1)Ci(N−1)+φ(kinNCeN− koutNCiN)−kmet0NCiN (2) where C is the concentration of the diffusing substance at position x and time t in the extracellular (e) or intracellular (i) compartment, D is the diffusion coefficient through either a bare support membrane (without cells) (D suo ) or extracellular space of a POR-R MCL (D MCL ), k loss is the rate constant for first-order loss (instability) in culture medium, k in and k out are the rate constants for transmembrane transport and k met0 is the rate constant for intracellular metabolism and instability for each compound (N). For metabolites, N-1 represents the previous compound from which the current compound is produced by metabolism. Experimental data was fitted iteratively to derive a tissue diffusion coefficient (DMCL) and metabolic scaling factor (φ i ) to restrain parameter estimates from the cellular PK model (Kin, Kout, Kmet0). The diffusion coefficient for CP-506 across the bare support membrane (Dsup) was determined by solving Eq. 1 with a reaction term only for chemical instability. MCL thicknesses were estimated by fitting the measured [^14C]-urea concentrations to those predicted by Eq. 1 and Eq. 2 without instability or metabolism by using the known diffusion coefficient (DMCL) for [^14C]-urea in HCT-116 MCLs ([Wilson et al., 2004]). The diffusion coefficient (DMCL) for CP-506 in POR-R MCLs was then fitted from the measured concentrations in the donor and receiver compartments of supraoxic experiments by assuming one-directional diffusion in the extracellular space. The metabolic scaling factor (φ i ) was then fitted from the measured concentrations in the donor and receiver compartment of anoxic experiments by fixing parameter estimates to the diffusion coefficient (DMCL) from supraoxic experiments."}, "[4]": {"details": "assumed equivalent to CP-506 for the active metabolites"}}, "note": "Where “and” joins values, the source holds several entries; their conditions need not be identical. Equal values may be shown once.", "data": [{"smiles": "CCN1CCN(C(=O)c2cc(N(CCBr)CCOS(C)(=O)=O)c(S(C)(=O)=O)cc2NO)CC1", "note": "[CP-506H, 2-((2-bromoethyl)(5-(4-ethylpiperazine-1-carbonyl)-4-(hydroxyamino)-2-(methylsulfonyl)phenyl)amino)ethyl methanesulfonate]", "values": [{"measurement": "Activator k met0: rate constant for the maximum rate of metabolism in POR-R cells under anoxia", "setting": "[1]", "result": 0.09, "unit": "min⁻¹"}, {"measurement": "k in: rate constant for transfer from the extracellular to intracellular volume", "setting": "[1]", "result": 0.9, "unit": "min⁻¹"}, {"measurement": "k out: rate constant for transfer from the intracellular to extracellular volume", "setting": "[1]", "result": 0.25, "unit": "min⁻¹"}, {"measurement": "kin: rate of transfer from the extracellular to the intracellular compartment", "setting": "[1]", "result": 0.9, "unit": "min⁻¹"}, {"measurement": "kout: rate of transfer from the intracellular to the extracellular compartment", "setting": "[1]", "result": 0.25, "unit": "min⁻¹"}, {"measurement": "kmet: rate of metabolism to the next metabolite", "setting": "[1]", "result": 0.09, "unit": "min⁻¹"}, {"measurement": "half-life at 100 µM", "setting": "[2]", "result": 12.6, "unit": "min"}, {"measurement": "D M: diffusion coefficient in medium", "setting": "[3]; [4]", "result": "1.32 × 10^−6 ± 0.19 × 10^−6 cm^2s^−1"}]}, {"smiles": "CCN1CCN(C(=O)c2cc(N(CCBr)CCOS(C)(=O)=O)c(S(C)(=O)=O)cc2N)CC1", "note": "[CP-506M, 2-((4-amino-5-(4-ethylpiperazine-1-carbonyl)-2-(methylsulfonyl)phenyl)(2-bromoethyl)amino)ethyl methanesulfonate]", "values": [{"measurement": "Activator k met0: rate constant for the maximum rate of metabolism in POR-R cells under anoxia", "setting": "[1]", "result": 0.1, "unit": "min⁻¹"}, {"measurement": "k in: rate constant for transfer from the extracellular to intracellular volume", "setting": "[1]", "result": 0.9, "unit": "min⁻¹"}, {"measurement": "k out: rate constant for transfer from the intracellular to extracellular volume", "setting": "[1]", "result": 0.4, "unit": "min⁻¹"}, {"measurement": "kin: rate of transfer from the extracellular to the intracellular compartment", "setting": "[1]", "result": 0.9, "unit": "min⁻¹"}, {"measurement": "kout: rate of transfer from the intracellular to the extracellular compartment", "setting": "[1]", "result": 0.4, "unit": "min⁻¹"}, {"measurement": "kmet: rate of metabolism to the next metabolite", "setting": "[1]", "result": 0.1, "unit": "min⁻¹"}, {"measurement": "half-life at 100 µM", "setting": "[2]", "result": 6.6, "unit": "min"}, {"measurement": "D M: diffusion coefficient in medium", "setting": "[3]; [4]", "result": "1.32 × 10^−6 ± 0.19 × 10^−6 cm^2s^−1"}]}, {"smiles": "CCN1CCN(C(=O)c2cc(N(CCCl)CCCl)c(S(C)(=O)=O)cc2N)CC1", "note": "[CP-506M-Cl2, (2-Amino-5-(bis(2-chloroethyl)amino)-4-(methylsulfonyl)phenyl)(4-ethylpiperazin-1-yl)methanone]", "values": [{"measurement": "Activator k met0: rate constant for the maximum rate of metabolism in POR-R cells under anoxia", "setting": "[1]; footnote d: assumed equivalent to the measured metabolites or from published PR-104A estimates", "result": "0.1 ^d min^−1"}, {"measurement": "D M: diffusion coefficient in medium", "setting": "[3]; [4]", "result": "1.32 × 10^−6 ± 0.19 × 10^−6 cm^2s^−1"}]}, {"smiles": "CCN1CCN(C(=O)c2cc(N(CCBr)CCOS(C)(=O)=O)c(S(C)(=O)=O)cc2[N+](=O)[O-])CC1", "note": "[CP-506, 2-[(2-bromoethyl)-5-[(4-ethyl-1-piperazinyl)carbonyl]-2-(methylsulfonyl)-4-nitroanilino]ethyl methanesulfonate]", "values": [{"measurement": "Activator k met0: rate constant for the maximum rate of metabolism in POR-R cells under anoxia", "setting": "[1]", "result": 0.12, "unit": "min⁻¹"}, {"measurement": "k in: rate constant for transfer from the extracellular to intracellular volume", "setting": "[1]", "result": 3.7, "unit": "min⁻¹"}, {"measurement": "k out: rate constant for transfer from the intracellular to extracellular volume", "setting": "[1]", "result": 0.06, "unit": "min⁻¹"}, {"measurement": "kin: rate of transfer from the extracellular to the intracellular compartment", "setting": "[1]", "result": 3.7, "unit": "min⁻¹"}, {"measurement": "kout: rate of transfer from the intracellular to the extracellular compartment", "setting": "[1]", "result": 0.06, "unit": "min⁻¹"}, {"measurement": "kmet: rate of metabolism to the next metabolite", "setting": "[1]", "result": 0.12, "unit": "min⁻¹"}, {"measurement": "Steady-state Ci/Ce ratio (cell uptake)", "setting": "[1]; anoxic <1 ppm O2, POR-R monolayer", "result": 40, "unit": "fold"}, {"measurement": "half-life at 100 µM", "setting": "[2]", "result": 1200, "unit": "min"}, {"measurement": "D M: diffusion coefficient in medium", "setting": "[3]; Dsup fitted for bare support membranes under supraoxic conditions", "result": "1.32 × 10^−6 ± 0.19 × 10^−6 cm^2s^−1"}, {"measurement": "Dsup: diffusion coefficient across bare support membranes", "setting": "[3]; anoxic (5% CO2, bal N2)", "result": "0.717 ± 0.01 x 10^−6 cm^2 s^−1 and 0.717 ± 0.01 (3) x 10^−6 cm^2 s^−1"}, {"measurement": "Dsup: diffusion coefficient across bare support membranes", "setting": "[3]; supraoxic (95% O2, 5% CO2)", "result": "1.32 ± 0.19 x 10^−6 cm^2 s^−1 and 1.32 ± 0.19 (2) ^b x 10^−6 cm^2 s^−1"}]}]}
